According to patent US10022365B2 (Jiangsu Hengrui Medicine Co., Ltd., priority 2009, dated 2018):
Where a name gives a salt, the structure may show the parent alone.

System: Ls-174t human colon cancer
Assay: Antitumor therapeutic efficacy test in vivo
Design: species or system BALB/cA-nude mice
Description: [Antitumor Therapeutic Efficacy Test In Vivo]
Preparation methods: The drug was diluted with saline solution to required concentration.
Experimental animals: BALB/cA-nude mice, 6-7 weeks, ♀, purchased from Shanghai Slac Laboratory Animal Co., LTD. […] Environment: SPF level.
After tumors grew to the 150-300 mm^3, mice were randomly divided into teams (d0). The volume of tumors and the weight of the mice were measured and recorded for 2-3 times per week. The tumor volume (V) was calculated by the follow equation: V=½×a×b^2 wherein a, b represent length and width respectively.

Question: Which results are given for `CCc1c2c(nc3ccc(OC(=O)N4CCC(N5CCCCC5)CC4)cc13)-c1cc3c(c(=O)n1C2)COC(=O)[C@]3(O)CC` [CPT-11, Irinotecan hydrochloride]?
Answer: growth of Ls-174t human colon cancer in nude mice: inhibited the growth of Ls-174t human colon cancer in nude mice significantly; % T/C D12 (10 mg/kg, IV, D0, 3): 45%; Tumor inhibition rate (%) D12 (10 mg/kg, IV, D0, 3): 55%; Partial regression (10 mg/kg, IV, D0, 3, number of animals): 0
